Laboratory results published in patent publication US12247015B2, “3-amino-4H-benzo[e][1,2,4]thiadiazine 1,1-dioxide derivatives as inhibitors of MRGX2” (Solent Therapeutics, LLC, priority 2019, dated 2025).

Experiments:
[1] = molecular target: hMRGX2 (CHO-K1 cells overexpressing MRGX2) (Homo sapiens (Human), UniProt Q96LB1); experiment: In vitro inhibition (EC50) of intracellular calcium flux, FLIPR Tetra, substance P stimulation; format: cell-based; details: stimulated with MRGX2 ligand substance P, FLIPR Calcium 5, read-out: hMRGX2 Cellular Potency (pEC50) (converted)
Chain of hMRGX2 (CHO-K1 cells overexpressing MRGX2) (Q96LB1 whole entry): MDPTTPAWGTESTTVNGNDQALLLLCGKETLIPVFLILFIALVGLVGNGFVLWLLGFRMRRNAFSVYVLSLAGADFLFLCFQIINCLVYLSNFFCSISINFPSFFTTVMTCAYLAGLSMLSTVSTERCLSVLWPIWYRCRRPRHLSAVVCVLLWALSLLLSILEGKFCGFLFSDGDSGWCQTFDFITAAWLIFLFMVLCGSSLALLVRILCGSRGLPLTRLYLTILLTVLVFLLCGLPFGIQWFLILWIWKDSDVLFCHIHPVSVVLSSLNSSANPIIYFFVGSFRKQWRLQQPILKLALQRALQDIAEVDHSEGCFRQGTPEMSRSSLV
Summary of the method: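 CHO-K1 cells overexpressing human MRGX2, loaded with Calcium 5 dye for 30 min at 37 °C, then given compound (11-point, top 10 μM).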

human MRGX2 receptor = human MRGX2 receptor (Homo sapiens (Human), UniProt Q96LB1); experiment: In vitro radioligand binding assay (Kd); details: membrane from SF9 cells overexpressing human MRGX2; 3H-labeled ligand; pH 7.4, room temperature, 60 minutes
Chain of human MRGX2 receptor (Q96LB1 whole entry): as above
Protocol: In vitro Radioligand Binding Assay (Kd)
Equilibrium dissociation constants, Kd, for many of the compounds described in the Examples section (“test compounds”) are determined in the presence cellular membrane prepared from SF9 cell lines overexpressing the human MRGX2 receptor. The assay is carried out in a 96-well plate (Greiner V-Bottom #651201). […] The assay mixtures, which comprise MRGX2 receptor, radiolabeled ligand and test compound, are incubated at room temperature (˜22° C.) for 60 minutes to reach equilibrium. After incubation, the assay mixtures are collected on a filter mat (Filtermat A, Perkin Elmer) using a cell harvester (Harvester 96, TOMTEC). The filter mat is completely dried. A solid scintillant (Meltilex, Perkin Elmer) is added to each filter membrane and the level of radioactivity (“Signal”) from each well (assay mixture) is recorded using a scintillation counter (Trilux Microbeta, PerkinElmer). Kd is determined by curve-fitting the dose response data ([I], Signal) for each set of samples to the equation,
[formula] where [I] is the concentration of the test compound. The data are reported as pKd

| EC50 [1] [nM] | hMRGX2 Binding Affinity (pKd) (human MRGX2 receptor) | Compound |
| --- | --- | --- |
| 17 |  | O=S1(=O)N=C(NCc2cccc(F)n2)Nc2c(-c3cccc(F)c3Cl)cccc21 [Example 148, 5-(2-chloro-3-fluorophenyl)-3-(((6-fluoropyridin-2-yl)methyl)amino)-4H-benzo[e][1,2,4]thiadiazine 1,1-dioxide] |
| 320 |  | N#Cc1c(F)cccc1-c1cccc2c1NC(NCCF)=NS2(=O)=O [Example 149, 2-fluoro-6-(3-((2-fluoroethyl)amino)-1,1-dioxido-4H-benzo[e][1,2,4]thiadiazin-5-yl)benzonitrile] |
| 416 |  | COC(C)CNC1=NS(=O)(=O)c2cccc(-c3cccc(F)c3C#N)c2N1 (stereo not shown) [Example 150, 2-fluoro-6-(3-((2-methoxypropyl)amino)-1,1-dioxido-4H-benzo[e][1,2,4]thiadiazin-5-yl)benzonitrile] |
| 562 |  | COCCCNC1=NS(=O)(=O)c2cccc(-c3cccc(F)c3Cl)c2N1 [Example 151, 5-(2-chloro-3-fluorophenyl)-3-((3-methoxypropyl)amino)-4H-benzo[e][1,2,4]thiadiazine 1,1-dioxide] |
| 223 |  | O=S1(=O)N=C(NCCCF)Nc2c(-c3cccc(F)c3Cl)cccc21 [Example 152, 5-(2-chloro-3-fluorophenyl)-3-((3-fluoropropyl)amino)-4H-benzo[e][1,2,4]thiadiazine 1,1-dioxide] |
| 35.2 |  | CO[C@@H](C)CCNC1=NS(=O)(=O)c2cccc(-c3cccc(F)c3Cl)c2N1 [Example 155, (S)-5-(2-chloro-3-fluorophenyl)-3-((3-methoxybutyl)amino)-4H-benzo[e][1,2,4]thiadiazine 1,1-dioxide] |
| 47.5 |  | COCCNC1=NS(=O)(=O)c2cccc(-c3cccc(F)c3C3CC3)c2N1 [Example 156, 5-(2-cyclopropyl-3-fluorophenyl)-3-((2-methoxyethyl)amino)-4H-benzo[e][1,2,4]thiadiazine 1,1-dioxide] |
| 56.2 |  | CNC1=NS(=O)(=O)c2cccc(-c3cccc(F)c3C3CC3)c2N1 [Example 157, 5-(2-cyclopropyl-3-fluorophenyl)-3-(methylamino)-4H-benzo[e][1,2,4]thiadiazine 1,1-dioxide] |
| 229 |  | CC(C)NC1=NS(=O)(=O)c2cccc(-c3cccc(F)c3Cl)c2N1 [Example 158, 5-(2-chloro-3-fluorophenyl)-3-(isopropylamino)-4H-benzo[e][1,2,4]thiadiazine 1,1-dioxide] |
| 53.6 |  | O=S1(=O)N=C(NC2CC2)Nc2c(-c3cccc(F)c3Cl)cccc21 [Example 159, 5-(2-chloro-3-fluorophenyl)-3-(cyclopropylamino)-4H-benzo[e][1,2,4]thiadiazine 1,1-dioxide] |
| 93.3 |  | O=S1(=O)N=C(NCCOCC(F)F)Nc2c(-c3cccc(F)c3Cl)cccc21 [Example 160, 5-(2-chloro-3-fluorophenyl)-3-((2-(2,2-difluoroethoxy)ethyl)amino)-4H-benzo[e][1,2,4]thiadiazine 1,1-dioxide] |
| 61.5 |  | N#Cc1c(F)cccc1-c1cccc2c1NC(NCc1ncco1)=NS2(=O)=O [Example 161, 2-fluoro-6-(3-((oxazol-2-ylmethyl)amino)-1,1-dioxido-4H-benzo[e][1,2,4]thiadiazin-5-yl)benzonitrile] |
| 180 |  | CCc1ccccc1-c1cccc2c1NC(NCCOC)=NS2(=O)=O [Example 163, 5-(2-ethylphenyl)-3-((2-methoxyethyl)amino)-4H-benzo[e][1,2,4]thiadiazine 1,1-dioxide] |
| 225 |  | O=S1(=O)N=C(NCc2ccco2)Nc2c(-c3cc(F)cc(F)c3)cccc21 [Example 164, 5-(3,5-difluorophenyl)-3-((furan-2-ylmethyl)amino)-4H-benzo[e][1,2,4]thiadiazine 1,1-dioxide] |
| 288 |  | CCNC1=NS(=O)(=O)c2cccc(-c3cccc(F)c3F)c2N1 [Example 165, 5-(2,3-difluorophenyl)-3-(ethylamino)-4H-benzo[e][1,2,4]thiadiazine 1,1-dioxide] |
| 340 |  | COC(C)CNC1=NS(=O)(=O)c2cccc(-c3cc(F)cc(F)c3)c2N1 (stereo not shown) [Example 166, 5-(3,5-difluorophenyl)-3-((2-methoxypropyl)amino)-4H-benzo[e][1,2,4]thiadiazine 1,1-dioxide] |
| 394 |  | COC1CC(NC2=NS(=O)(=O)c3cccc(-c4cccc(F)c4Cl)c3N2)C1 (stereo not shown) [Example 167, 5-(2-chloro-3-fluorophenyl)-3-((3-methoxycyclobutyl)amino)-4H-benzo[e][1,2,4]thiadiazine 1,1-dioxide] |
| 470 |  | COCCNC1=NS(=O)(=O)c2cccc(-c3cc(F)cc(F)c3F)c2N1 [Example 168, 3-((2-methoxyethyl)amino)-5-(2,3,5-trifluorophenyl)-4H-benzo[e][1,2,4]thiadiazine 1,1-dioxide] |
| 638 |  | COCCNC1=NS(=O)(=O)c2cccc(-c3ccc(F)c(F)c3C)c2N1 [Example 170, 5-(3,4-difluoro-2-methylphenyl)-3-((2-methoxyethyl)amino)-4H-benzo[e][1,2,4]thiadiazine, 1,1-dioxide] |

Continued, compound first:

| Compound | EC50 [1] [nM] | hMRGX2 Binding Affinity (pKd) (human MRGX2 receptor) |
| --- | --- | --- |
| CNC1=NS(=O)(=O)c2cccc(-c3cccc(F)c3Cl)c2N1 [Example 1, 5-(2-chloro-3-fluorophenyl)-3-(methylamino)-4H-benzo[e][1,2,4]thiadiazine 1,1-dioxide] | 69.3 | 6.724 |
| COCCNC1=NS(=O)(=O)c2cccc(-c3cccc(F)c3Cl)c2N1 [Example 2, 5-(2-chloro-3-fluorophenyl)-3-((2-methoxyethyl)amino)-4H-benzo[e][1,2,4]thiadiazine 1,1-dioxide] | 51.9 | 6.984 |
| COCCNC1=NS(=O)(=O)c2cc(F)cc(-c3cccc(F)c3Cl)c2N1 [Example 4, 5-(2-chloro-3-fluorophenyl)-7-fluoro-3-((2-methoxyethyl)amino)-4H-benzo[e][1,2,4]thiadiazine 1,1-dioxide] | 15.4 | 6.975 |
| CCNC1=NS(=O)(=O)c2cc(F)cc(-c3cccc(F)c3Cl)c2N1 [Example 6, 5-(2-chloro-3-fluorophenyl)-3-(ethylamino)-7-fluoro-4H-benzo[e][1,2,4]thiadiazine 1,1-dioxide] | 21.6 | 6.78 |
| O=S1(=O)N=C(NCC2CC2)Nc2c(-c3cccc(F)c3Cl)cc(F)cc21 [Example 7, 5-(2-chloro-3-fluorophenyl)-3-((cyclopropylmethyl)amino)-7-fluoro-4H-benzo[e][1,2,4]thiadiazine 1,1-dioxide] | 23.3 | 7.27 |
| O=S1(=O)N=C(NCc2ncccc2F)Nc2c(-c3cccc(F)c3Cl)cccc21 [Example 12, 5-(2-chloro-3-fluorophenyl)-3-(((3-fluoropyridin-2-yl)methyl)amino)-4H-benzo[e][1,2,4]thiadiazine 1,1-dioxide] | 13.6 | 7.45 |
| O=S1(=O)N=C(NCc2ncccc2F)Nc2c(-c3ccccc3Cl)cc(F)cc21 [Example 16, 5-(2-chlorophenyl)-7-fluoro-3-(((3-fluoropyridin-2-yl)methyl)amino)-4H-benzo[e][1,2,4]thiadiazine 1,1-dioxide] | 10.3 | 7.5 |
| O=S1(=O)N=C(NCc2ncco2)Nc2c(-c3cccc(F)c3Cl)cccc21 [Example 28, 5-(2-chloro-3-fluorophenyl)-3-((oxazol-2-ylmethyl)amino)-4H-benzo[e][1,2,4]thiadiazine 1,1-dioxide] | 24.1 | 7.03 |
| O=S1(=O)N=C(NCC(F)F)Nc2c(-c3cccc(F)c3Cl)cccc21 [Example 34, 5-(2-chloro-3-fluorophenyl)-3-((2,2-difluoroethyl)amino)-4H-benzo[e][1,2,4]thiadiazine 1,1-dioxide] | 38.5 | 7.025 |
| COCCNC1=NS(=O)(=O)c2cccc(-c3cc(F)ccc3F)c2N1 [Example 141, 5-(2,5-difluorophenyl)-3-((2-methoxyethyl)amino)-4H-benzo[e][1,2,4]thiadiazine 1,1-dioxide] | 366 |  |
| COC(C)CNC1=NS(=O)(=O)c2cccc(-c3cc(F)ccc3F)c2N1 (stereo not shown) [Example 142, 5-(2,5-difluorophenyl)-3-((2-methoxypropyl)amino)-4H-benzo[e][1,2,4]thiadiazine 1,1-dioxide] | 244 |  |
| CCNC1=NS(=O)(=O)c2cccc(-c3cc(F)ccc3F)c2N1 [Example 143, 5-(2,5-difluorophenyl)-3-(ethylamino)-4H-benzo[e][1,2,4]thiadiazine 1,1-dioxide] | 443 |  |
| COCCNC1=NS(=O)(=O)c2cccc(-c3cc(F)ccc3Cl)c2N1 [Example 144, 5-(2-chloro-5-fluorophenyl)-3-((2-methoxyethyl)amino)-4H-benzo[e][1,2,4]thiadiazine 1,1-dioxide] | 216 |  |
| COC(C)CNC1=NS(=O)(=O)c2cccc(-c3ccccc3C#N)c2N1 (stereo not shown) [Example 145, 2-(3-((2-methoxypropyl)amino)-1,1-dioxido-4H-benzo[e][1,2,4]thiadiazin-5-yl)benzonitrile] | 141 |  |
| N#Cc1ccccc1-c1cccc2c1NC(NCC1CCC1)=NS2(=O)=O [Example 146, 2-(3-((cyclobutylmethyl)amino)-1,1-dioxido-4H-benzo[e][1,2,4]thiadiazin-5-yl)benzonitrile] | 162 |  |
